The values below come from patent US9120770B2, “Substituted pyridine and pyrazine compounds as PDE4 inhibitors” (DART NEUROSCIENCE (CAYMAN) LTD., priority 2013, dated 2015).

SMILES strings stand for the structures.

The target in this assay is PDE4D3 (Homo sapiens, UniProt Q08499).
Chain of PDE4D3 (Q08499 1-673 isoform Q08499-2): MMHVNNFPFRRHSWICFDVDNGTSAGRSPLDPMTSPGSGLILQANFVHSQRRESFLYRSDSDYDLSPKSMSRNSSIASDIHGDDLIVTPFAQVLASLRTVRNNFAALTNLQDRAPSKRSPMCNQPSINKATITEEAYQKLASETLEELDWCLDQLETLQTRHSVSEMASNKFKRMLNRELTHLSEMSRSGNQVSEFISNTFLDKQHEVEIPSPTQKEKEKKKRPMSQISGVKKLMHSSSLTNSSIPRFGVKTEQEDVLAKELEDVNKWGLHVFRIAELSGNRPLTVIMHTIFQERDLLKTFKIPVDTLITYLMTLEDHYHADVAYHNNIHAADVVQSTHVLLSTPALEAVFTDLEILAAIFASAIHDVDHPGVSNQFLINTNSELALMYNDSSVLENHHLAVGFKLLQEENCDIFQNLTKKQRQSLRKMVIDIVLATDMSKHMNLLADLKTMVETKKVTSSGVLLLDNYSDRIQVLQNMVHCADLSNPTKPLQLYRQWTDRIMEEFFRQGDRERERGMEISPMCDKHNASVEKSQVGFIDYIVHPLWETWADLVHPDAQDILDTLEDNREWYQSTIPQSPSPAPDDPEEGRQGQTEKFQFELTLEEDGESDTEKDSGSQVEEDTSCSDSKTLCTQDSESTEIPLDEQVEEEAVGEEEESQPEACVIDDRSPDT
The EC50 is the midpoint of the concentration-response curve. Read a low EC50 as a more potent agent. As for `FC(F)Oc1ncc(Cn2cncn2)cc1-c1cccc(Cl)c1` [Example 131, 3-(3-Chlorophenyl)-2-(difluoromethoxy)-5-(1H-1,2,4-triazol-1-ylmethyl)pyridine], the EC50 was less than 100 nM.
With `COc1ncc(Cc2cnc(N)nc2)nc1-c1cccc(OC(F)F)c1` [Example 106, 5-({6-[3-(Difluoromethoxy)phenyl]-5-methoxypyrazin-2-yl}methyl)pyrimidin-2-amine], the EC50 is less than 100 nM.
`COc1ncc(Cc2ccc(C(=O)NC3COC3)cc2)cc1-c1cccc(Cl)c1` [Example 243, 4-{[5-(3-Chlorophenyl)-6-methoxypyridin-3-yl]methyl}-N-(oxetan-3-yl)benzamide] registered an EC50 of 1000 to 10000 nM.
The same measure for `CCOc1ncc(Cn2ncnc2COC)cc1-c1cccc(OC(F)F)c1` [Example 166, 3-[3-(Difluoromethoxy)phenyl]-2-ethoxy-5-{[5-(methoxymethyl)-1H-1,2,4-triazol-1-yl]methyl}pyridine]: 100 to 1000 nM; for `CCOc1ncc(Cn2ncnc2[N+](=O)[O-])nc1-c1cccc(OC(F)F)c1` [Example 194, 3-(3-(Difluoromethoxy)phenyl)-2-ethoxy-5-((5-nitro-1H-1,2,4-triazol-1-yl)methyl)pyrazine]: 1000 to 10000 nM; for `CCOc1ncc(Cn2cc(Cl)c(N)n2)cc1-c1cccc(Cl)c1` [Example 234, 4-Chloro-1-{[5-(3-chlorophenyl)-6-ethoxypyridin-3-yl]methyl}-1H-pyrazol-3-amine]: 100 to 1000 nM.
The same measure for `COc1ncc(Cc2cnoc2)cc1-c1cccc(Cl)c1` [Example 96, 3-(3-Chlorophenyl)-2-methoxy-5-(1,2-oxazol-4-ylmethyl)pyridine]: 100 to 1000 nM; for `COc1ncc(Cc2cnc(NC3CC3)nc2)nc1-c1cccc(Cl)c1` [Example 57, 5-{[6-(3-Chlorophenyl)-5-methoxypyrazin-2-yl]methyl}-N-cyclopropylpyrimidin-2-amine]: 100 to 1000 nM; for `CNc1ncc(Cc2cnc(OC)c(-c3cccc(Cl)c3)n2)cn1` [Example 56, 5-{[6-(3-Chlorophenyl)-5-methoxypyrazin-2-yl]methyl}-N-methylpyrimidin-2-amine]: less than 100 nM.
The same measure for `COc1ncc(Cn2cncn2)cc1-c1cncc(C)c1` [Example 6, 2-Methoxy-3-(5-methylpyridin-3-yl)-5-(1H-1,2,4-triazol-1-ylmethyl)pyridine]: more than 10000 nM; for `COc1ncc(Cn2cnc(C(F)(F)F)n2)cc1-c1cccc(OC(F)F)c1` [Example 159, 3-[3-(Difluoromethoxy)phenyl]-2-methoxy-5-{[3-(trifluoromethyl)-1H-1,2,4-triazol-1-yl]methyl}pyridine]: 100 to 1000 nM; for `FC(F)Oc1ncc(Cn2cnc(C3CC3)n2)cc1-c1cccc(Cl)c1` [Example 128, 3-(3-Chlorophenyl)-5-[(3-cyclopropyl-1H-1,2,4-triazol-1-yl)methyl]-2-(difluoromethoxy)pyridine]: 100 to 1000 nM.
`COc1ncc(Cc2sc(C)nc2C)cc1-c1cccc(Cl)c1` [Example 66, 3-(3-Chlorophenyl)-5-[(dimethyl-1,3-thiazol-5-yl)methyl]-2-methoxypyridine] had an EC50 of less than 100 nM.
As to `CCOc1ncc(Cn2cnc(CO)n2)nc1-c1cccc(OC(F)F)c1` [Example 208, [1-({6-[3-(Difluoromethoxy)phenyl]-5-ethoxypyrazin-2-yl}methyl)-1H-1,2,4-triazol-3-yl]methanol], the EC50 was 100 to 1000 nM.
In turn, `COc1ncc(C(c2ccc(F)cc2)N(C)C)cc1-c1cccc(Cl)c1` (stereo not shown) [Example 19, {[5-(3-Chlorophenyl)-6-methoxypyridin-3-yl](4-fluorophenyl)methyl}dimethylamine] registered an EC50 of 1000 to 10000 nM.
Next, `COc1ncc(Cn2cnc(C(F)(F)F)n2)cc1-c1cccc(Cl)c1` [Example 146, 3-(3-Chlorophenyl)-2-methoxy-5-{[3-(trifluoromethyl)-1H-1,2,4-triazol-1-yl]methyl}pyridine]: 100 to 1000 nM.
Next, `COc1ncc(Cn2cnc(C)n2)nc1-c1cccc(Cl)c1` [Example 132, 3-(3-Chlorophenyl)-2-methoxy-5-[(3-methyl-1H-1,2,4-triazol-1-yl)methyl]pyrazine]: 100 to 1000 nM; `COc1ncc(Cc2cnc(OC)c(-c3cccc(Cl)c3)c2)cc1C` [Example 67, 3-(3-Chlorophenyl)-2-methoxy-5-[(6-methoxy-5-methylpyridin-3-yl)methyl]pyridine]: 100 to 1000 nM; `CCOc1cccc(-c2cc(Cn3cnc(CF)n3)cnc2OC(F)F)c1` [Example 255, 2-(Difluoromethoxy)-3-(3-ethoxyphenyl)-5-{[3-(fluoromethyl)-1H-1,2,4-triazol-1-yl]methyl}pyridine]: 100 to 1000 nM.
Next, `COc1ncc(Cn2cncn2)cc1-c1cc(C)ccn1` [Example 10, 2-Methoxy-3-(4-methylpyridin-2-yl)-5-(1H-1,2,4-triazol-1-ylmethyl)pyridine]: more than 10000 nM; `CCOc1ncc(Cn2ncnc2COC)nc1-c1cccc(OC(F)F)c1` [Example 190, 3-[3-(Difluoromethoxy)phenyl]-2-ethoxy-5-{[5-(methoxymethyl)-1H-1,2,4-triazol-1-yl]methyl}pyrazine]: 1000 to 10000 nM; `COc1ncc(Cc2cnc(Cl)nc2)cc1-c1cccc(Cl)c1` [Example 2, 2-Chloro-5-{[5-(3-chlorophenyl)-6-methoxypyridin-3-yl]methyl}pyrimidine]: 100 to 1000 nM.
Consider `COc1ncc(Cn2cnc(C(N)=O)n2)cc1-c1cccc(Cl)c1` [Example 241, 1-{[5-(3-Chlorophenyl)-6-methoxypyridin-3-yl]methyl}-1H-1,2,4-triazole-3-carboxamide], for which the EC50 was in the range of 1000 to 10000 nM.
The same measure for `COCc1ncn(Cc2cnc(OC(F)F)c(-c3cccc(Cl)c3)c2)n1` [Example 157, 3-(3-Chlorophenyl)-2-(difluoromethoxy)-5-{[3-(methoxymethyl)-1H-1,2,4-triazol-1-yl]methyl}pyridine]: 100 to 1000 nM.
Next, `FC(F)Oc1ncc(Cn2ncnn2)cc1-c1cccc(Cl)c1` [Example 162, 3-(3-Chlorophenyl)-2-(difluoromethoxy)-5-(2H-1,2,3,4-tetrazol-2-ylmethyl)pyridine]: less than 100 nM.
Next, `CCOC(=O)c1cnn(Cc2cnc(OC)c(-c3cccc(Cl)c3)c2)c1` [Example 169, Ethyl 1-{[5-(3-chlorophenyl)-6-methoxypyridin-3-yl]methyl}-1H-pyrazole-4-carboxylate]: 1000 to 10000 nM; `CCOc1ncc(Cn2cc(Cl)c(CO)n2)cc1-c1cccc(Cl)c1` [Example 277, (4-Chloro-1-{[5-(3-chlorophenyl)-6-ethoxypyridin-3-yl]methyl}-1H-pyrazol-3-yl)methanol]: 100 to 1000 nM; `CCOc1ncc(Cn2cc(CO)cn2)cc1-c1cccc(Cl)c1` [Example 276, (1-{[5-(3-Chlorophenyl)-6-ethoxypyridin-3-yl]methyl}-1H-pyrazol-4-yl)methanol]: less than 100 nM.
Turning to `CCOc1ncc(Cc2cnc(C#N)nc2)nc1-c1cccc(Cl)c1` [Example 108, 5-{[6-(3-Chlorophenyl)-5-ethoxypyrazin-2-yl]methyl}pyrimidine-2-carbonitrile], the EC50 was 100 to 1000 nM.
The same measure for `CCOc1ncc(Cn2cc(CF)nn2)cc1-c1cccc(OC(F)F)c1` [Example 254, 3-[3-(Difluoromethoxy)phenyl]-2-ethoxy-5-{[4-(fluoromethyl)-1H-1,2,3-triazol-1-yl]methyl}pyridine]: 100 to 1000 nM; for `OCc1ncn(Cc2cnc(OC(F)F)c(-c3ccnc(OC(F)F)c3)c2)n1` [Example 207, (1-{[6-(Difluoromethoxy)-5-[2-(difluoromethoxy)pyridin-4-yl]pyridin-3-yl]methyl}-1H-1,2,4-triazol-3-yl)methanol]: 100 to 1000 nM.
The same measure for `COC(=O)c1ncn(Cc2cnc(OC)c(-c3cccc(Cl)c3)n2)n1` [Example 127, Methyl 1-{[6-(3-chlorophenyl)-5-methoxypyrazin-2-yl]methyl}-1H-1,2,4-triazole-3-carboxylate]: 1000 to 10000 nM; for `COc1ncc(Cc2ccc(C(C)(C)O)nc2)cc1-c1cccc(Cl)c1` [Example 251, 2-(5-{[5-(3-Chlorophenyl)-6-methoxypyridin-3-yl]methyl}pyridin-2-yl)propan-2-ol]: 100 to 1000 nM; for `COc1ncc(Cc2cnc(C(N)=O)nc2)cc1-c1ccnc(OC(F)F)c1` [Example 120, 5-({5-[2-(Difluoromethoxy)pyridin-4-yl]-6-methoxypyridin-3-yl}methyl)pyrimidine-2-carboxamide]: 100 to 1000 nM.
The same measure for `CCOc1ncc(Cn2ncnc2C(=O)OC)nc1-c1cccc(OC(F)F)c1` [Example 192, Methyl 1-((6-(3-(difluoromethoxy)phenyl)-5-ethoxypyrazin-2-yl)methyl)-1H-1,2,4-triazole-5-carboxylate]: 1000 to 10000 nM; for `COc1ncc(Cn2cncn2)cc1-c1cn[nH]c1` [Example 242, 2-Methoxy-3-(1H-pyrazol-4-yl)-5-(1H-1,2,4-triazol-1-ylmethyl)pyridine]: more than 10000 nM; for `CCOc1ncc(Cn2cnc(C(F)F)n2)cc1-c1cccc(OC(F)F)c1` [Example 260, 3-[3-(Difluoromethoxy)phenyl]-5-{[3-(difluoromethyl)-1H-1,2,4-triazol-1-yl]methyl}-2-ethoxypyridine]: less than 100 nM.
As for `CCOc1ncc(Cc2cnc(C(N)=O)nc2)nc1-c1cccc(Cl)c1` [Example 126, 5-{[6-(3-Chlorophenyl)-5-ethoxypyrazin-2-yl]methyl}pyrimidine-2-carboxamide], the EC50 was less than 100 nM.
On to `COc1ncc(Cc2cnc(OC(F)F)c(-c3cccc(Cl)c3)c2)cn1` [Example 92, 5-{[5-(3-Chlorophenyl)-6-(difluoromethoxy)pyridin-3-yl]methyl}-2-methoxypyrimidine], for which the EC50 was less than 100 nM.
Consider `Nc1ncn(Cc2cnc(OC(F)F)c(-c3cccc(Cl)c3)c2)n1` [Example 219, 1-{[5-(3-Chlorophenyl)-6-(difluoromethoxy)pyridin-3-yl]methyl}-1H-1,2,4-triazol-3-amine], for which the EC50 was less than 100 nM.
